Measured values reported in patent US20070248955A1, “Use Of Genetic Polymorphisms To Predict Drug-Induced Hepatotoxicity” (NOVARTIS AG, priority 2003, published 2007).

Assay: Hepatotoxicity (fold increases of AST or ALT over the upper limit of normal) in the phase II clinical trial
Type: in vivo, human
Description: Relevant genetic polymorphisms were identified in a multicenter, randomized, double-masked placebo-controlled dose finding phase II trial of N-benzoyl-staurosporine, which was conducted in subjects with diabetic macular edema. The safety of N-benzoyl-staurosporine was evaluated in the subjects and additional pharmacokinetic information on was collected. […] Subjects were flagged as having experienced hepatotoxicity if either aspartate aminotransferase (AST) or alanine aminotransferase (ALT) had fold elevations over the upper limit of normal on visit 3, 4 or 5.
The diagnosis of hepatotoxicity can be accomplished using assays of serum enzyme levels. Serum enzyme assays indicative of liver dysfunction are well-known to those of skill in the medical arts and routine in hospital laboratories. For a definition of hepatotoxicity based upon serum levels of aspartate transaminase (AST) and used in the EXAMPLE: The definition of hepatotoxicity used in this analysis was based on fold increases in serum aspartate transaminase or alanine aminotransferase over the upper limit of normal (ULN) on visits 3, 4 or 5. The upper limit of normal for serum aspartate transaminase is 42 U/L for ages 3-64 and 55 U/L for ages 65 and up; for serum alanine aminotransferase the upper limit of normal is 48 U/L (Smithkline Beecham Clinical Laboratories Reference Alert Ranges). While an elevation of either enzyme at visit 3, 4 or 5 constituted hepatotoxicity, transaminase elevations were disregarded during subsequent visits when the drug was not being administered. Furthermore, subjects who had elevated liver function tests at baseline (visit 2) were not flagged as having experienced hepatotoxicity, regardless of the elevation in their enzyme levels following administration of the drug. Nine subjects were flagged as having experienced hepatotoxicity. Of these, six consented to clinical pharmacogenetic analysis.
Hepatotoxicity and N-benzoyl-staurosporine metabolism. The relationship between the occurrence of hepatotoxicity in the clinical trial and the dose of N-benzoyl-staurosporine administered was examined. The percentage of subjects per dose group that experienced hepatotoxicity are as follows: 3% for 50 mg/day, 8% for 100 mg/day and 14% of those that took 150 mg/day. While most of the subjects that experienced liver toxicity took the highest dose of N-benzoyl-staurosporine, the association between of N-benzoyl-staurosporine dose and hepatotoxicity is not significant (p=0.09; Fisher's Exact).

Compound: CO[C@@H]1[C@H](N(C)C(=O)c2ccccc2)C[C@H]2O[C@]1(C)n1c3ccccc3c3c4c(c5c6ccccc6n2c5c31)C(=O)NC4 [N-benzoyl-staurosporine]
- percentage of subjects per dose group that experienced hepatotoxicity (50 mg/day, subjects with diabetic macular edema): 3%
- percentage of subjects per dose group that experienced hepatotoxicity (100 mg/day, subjects with diabetic macular edema): 8%
- percentage of subjects per dose group that experienced hepatotoxicity (150 mg/day, subjects with diabetic macular edema): 14%
- Hepatotoxicity Yes (CPG samples (83 subjects, all arms incl. 0 mg/day)): 7%
- Hepatotoxicity Yes (Trial samples (139 subjects, all arms incl. 0 mg/day)): 6%
- subjects that experienced hepatotoxicity (of the 140 subjects enrolled in the clinical trial (all arms)): nine
- safety profile (phase II trial, subjects with diabetic macular edema): good safety profile
